Calls of active or inactive are those of the source. The calls are words filed in the database; no cut-off is given here.
Tests used:
[1] = target: Mitogen-activated protein kinase; ERK1/ERK2 (Homo sapiens) (UniProt P27361+P28482); assay: Inhibition of ERK phosphorylation in cells (unknown origin) incubated for 6 hrs by Western blot based cell based method
[2] = target: Ribosomal protein S6 kinase (Homo sapiens) (UniProt P51812+Q9UBS0+O75676+Q15349+O75582+P23443+Q9UK32+Q15418); assay: Inhibition of RPS6 kinase phosphorylation in cells (unknown origin) incubated for 6 hrs by Western blot based cell based method

Mitogen-activated protein kinase; ERK1/ERK2 (Homo sapiens), sequence (P27361 whole entry, looked up): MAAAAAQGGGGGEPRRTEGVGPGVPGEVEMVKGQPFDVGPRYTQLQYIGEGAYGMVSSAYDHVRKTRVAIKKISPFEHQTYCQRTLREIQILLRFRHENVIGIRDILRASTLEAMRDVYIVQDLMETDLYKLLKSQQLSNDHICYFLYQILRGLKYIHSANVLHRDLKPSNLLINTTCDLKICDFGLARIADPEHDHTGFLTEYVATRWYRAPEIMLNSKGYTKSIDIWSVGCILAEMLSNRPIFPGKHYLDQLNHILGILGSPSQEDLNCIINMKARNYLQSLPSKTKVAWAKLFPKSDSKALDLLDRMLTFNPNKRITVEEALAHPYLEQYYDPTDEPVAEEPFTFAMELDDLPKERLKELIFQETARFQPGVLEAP
Mitogen-activated protein kinase; ERK1/ERK2 (Homo sapiens), sequence (P28482 whole entry, looked up): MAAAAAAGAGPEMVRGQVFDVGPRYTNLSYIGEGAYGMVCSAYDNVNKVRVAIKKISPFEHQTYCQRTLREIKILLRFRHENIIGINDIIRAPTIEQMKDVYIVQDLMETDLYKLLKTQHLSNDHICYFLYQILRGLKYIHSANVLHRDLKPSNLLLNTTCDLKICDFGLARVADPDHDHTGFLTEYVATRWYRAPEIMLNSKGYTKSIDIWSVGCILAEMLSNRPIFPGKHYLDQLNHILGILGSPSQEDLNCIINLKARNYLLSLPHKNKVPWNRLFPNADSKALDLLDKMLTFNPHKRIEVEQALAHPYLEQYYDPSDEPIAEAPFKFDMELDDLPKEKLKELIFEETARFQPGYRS

- inhibition [1]: Active
- inhibition [2]: Active
SMILES: CCNC(=O)c1c(C)[nH]c(/C=C2\C(=O)Nc3ccc(-c4csc(-c5ccccc5)n4)cc32)c1C
